± gives the standard deviation of the averaged measurements.
Tested on: SW982
Assay: relative viability vs DMSO control (72 h) (fraction); higher = more viable cells
Method in brief: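 Serially diluted compound, 2.5 µl from source plates spanning 10 mM to 0.0002 mM, was added 24 h after sarcoma cell lines were seeded in 384-well plates at densities targeting 80–90% confluence. Plates then sat 72 h at 37 °C, 5% CO2, with 0.1% DMSO vehicle and a 5 µM positive control. Relative viability came from ATPLite as percent growth, averaged over up to triplicate wells, and was rescaled with 1 as full and 0 as none.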

SMILES | relative viability (0.00017 µM) | relative viability (0.00051 µM) | relative viability (0.00152 µM) | relative viability (0.00457 µM) | relative viability (0.01372 µM) | relative viability (0.04115 µM) | relative viability (0.1235 µM) | relative viability (0.3704 µM) | relative viability (1.111 µM) | relative viability (3.333 µM) | relative viability (10 µM)
CC1(C)CNc2cc(NC(=O)c3cccnc3NCc3ccncc3)ccc21 [Motesanib] | 0.9792 ± 0.0014 | 0.972 ± 0.029 | 0.964 ± 0.039 | 0.964 ± 0.032 | 0.954 ± 0.013 | 0.933 ± 0.046 | 0.978 ± 0.042 | 0.965 ± 0.013 | 0.969 ± 0.033 | 0.9654 ± 0.0093 | 0.908 ± 0.086
C[C@@H](c1ccc2nccn2c1)n1nnc2ncc(-c3cnn(C)c3)nc21 [Volitinib] | 1.05 ± 0.02 | 1.07 ± 0.012 | 1.05 ± 0.012 | 1.05 ± 0.056 | 1.07 ± 0.03 | 1.06 ± 0.022 | 1.03 ± 0.021 | 1.07 ± 0.016 | 1.04 ± 0.034 | 1.07 ± 0.011 | 1.06 ± 0.025
Cc1ccc(NC(=O)c2ccc(CN3CCN(C)CC3)cc2)cc1Nc1nc(-c2cccnc2)cs1 [Masitinib] | 0.965 ± 0.027 | 0.996 ± 0.01 | 0.989 ± 0.015 | 0.983 ± 0.02 | 0.97 ± 0.026 | 0.961 ± 0.033 | 0.923 ± 0.025 | 0.89 ± 0.027 | 0.784 ± 0.045 | 0.513 ± 0.03 | 0.0613 ± 0.0081
C=CC(=O)Nc1cccc(Oc2nc(Nc3ccc(N4CCN(C)CC4)cc3)nc3ccsc23)c1 [Olmutinib] | 1.01 ± 0.024 | 1.01 ± 0.02 | 0.98 ± 0.01 | 1 ± 0.028 | 1.02 ± 0.016 | 1.01 ± 0.025 | 1 ± 0.011 | 0.969 ± 0.077 | 0.822 ± 0.065 | 0.663 ± 0.029 | 0.317 ± 0.033
CC(C)(C)c1cc(NC(=O)Nc2ccc(-c3cn4c(n3)sc3cc(OCCN5CCOCC5)ccc34)cc2)no1 [Quizartinib] | 1.06 ± 0.028 | 1.05 ± 0.017 | 1.05 ± 0.03 | 1.05 ± 0.029 | 1.06 ± 0.017 | 1.06 ± 0.022 | 1.06 ± 0.027 | 1.04 ± 0.031 | 1.05 ± 0.017 | 1.05 ± 0.039 | 1.05 ± 0.039
CC(C)NC(=O)C1CCC(n2c(NC(=O)c3ccc(F)cc3)nc3ccc(CN4CCC(C(C)(C)O)CC4)cc32)CC1 (centres undefined) [Belizatinib] | 1.09 ± 0.024 | 1.06 ± 0.023 | 1.05 ± 0.037 | 1.06 ± 0.03 | 1.06 ± 0.02 | 1.03 ± 0.054 | 0.974 ± 0.048 | 0.766 ± 0.045 | 0.383 ± 0.035 | 0.173 ± 0.011 | 0.0273 ± 0.0064
Cc1ccc(F)c(NC(=O)Nc2ccc(-c3cccc4[nH]nc(N)c34)cc2)c1 [Linifanib] | 1.03 ± 0.027 | 1.08 ± 0.024 | 1.05 ± 0.035 | 1.07 ± 0.032 | 1.03 ± 0.021 | 1.06 ± 0.043 | 1.06 ± 0.019 | 1.08 ± 0.04 | 1.1 ± 0.036 | 1.12 ± 0.015 | 1.12 ± 0.04
Cc1nc(NC(=O)N2CCC[C@H]2C(N)=O)sc1-c1ccnc(C(C)(C)C(F)(F)F)c1 [Alpelisib] | 0.989 ± 0.04 | 0.929 ± 0.033 | 0.98 ± 0.021 | 0.95 ± 0.02 | 0.997 ± 0.014 | 0.959 ± 0.055 | 0.964 ± 0.031 | 0.927 ± 0.052 | 0.845 ± 0.026 | 0.725 ± 0.022 | 0.596 ± 0.026
C[C@]1(O)C[C@@H](c2nc(-c3ccc4ccc(-c5ccccc5)nc4c3)c3c(N)nccn32)C1 [Linsitinib] | 1.01 ± 0.028 | 1.04 ± 0.026 | 1.03 ± 0.028 | 1.05 ± 0.031 | 1.05 ± 0.028 | 1.02 ± 0.041 | 0.918 ± 0.041 | 0.875 ± 0.035 | 0.824 ± 0.045 | 0.79 ± 0.035 | 0.583 ± 0.021

Source: the supplement of paper PMC10883282
